Where a name gives a salt, the structure may show the parent alone.
Columns and labels:
Assay type in all cases: cell-based, Pseudomonas aeruginosa
[1] = test system: P. aeruginosa strain PAO1; assay: Static biofilm inhibition assay (crystal violet), PAO1; conditions: for IC50 / inhibition at 500 µM: Pseudomonas aeruginosa, PAO1; for IC50: inhibition of biofilm formation, crystal violet, 24 hours
Description: Each compound was assayed for the ability to inhibit the formation of P. aeruginosa biofilms. […] We employed a standard crystal violet reporter assay to assess for the formation of biofilms. Briefly, P. aeruginosa strain PAO1 was allowed to form biofilms in a multi-well plate in the absence or presence of our compounds. Planktonic (or free growing) bacteria were then removed, wells washed vigorously, and crystal violet added. Crystal violet stains the remaining bacteria which, following ethanol solubilization, can be quantitated by spectrophotometry (A540).
(§1) An overnight culture of the bacterial strain being screened against was subcultured at an OD600 of 0.1 into the media used (listed below with strain) and then pipetted into test tubes along with a predetermined concentration of our compound of interest. Test tubes were then poured into tilted Petri dishes and 100 μL of media, strain and compound were then transferred into 96-well PVC microtiter plates. These microtiter plates were then covered, wrapped in Saran™ Wrap polyethylene film (S.C. Johnson, Racine, Wis.) and allowed to incubate at 37° C. for 24 hours. After that time, the medium was discarded and the plates were thoroughly washed with water. The remaining biofilm that was formed during incubation was stained with 100 μL of a 0.1% crystal violet solution and allowed to incubate at room temperature for 30 minutes. After 30 minutes, the crystal violet was discarded and washed thoroughly again with water. The remaining crystal violet that had stained the biofilm in the inside walls of the 96-well PVC plates was solubilized with 200 μL of 95% ethanol. The quantification of biofilm formation was accomplished by transferring 125 μL of the ethanol solution into a polystyrene microtiter dish, which was read by spectrophotometry (A540). After the background has been subtracted from each row, a percent inhibition can be calculated by dividing the amount of crystal violet in wells that contained compound by the amount of crystal violet in wells that contained bacteria only. Each concentration reported during the course of this study was repeated two to five times with each of those biofilm inhibition assays being done in 6 replicates each.
(§2) An overnight culture of the wild type strain was subcultured at an OD600 of 0.10 into LBNS along with a predetermined concentration of the small molecule to be tested for biofilm inhibition. Samples were then aliquoted (100 μL) into the wells of a 96-well PVC microtiter plate. The microtiter dishes were covered and sealed before incubation under stationary conditions at 37° C. for 24 hours. After that time, the medium was discarded and the plates thoroughly washed with water. The wells were then inoculated with a 0.1% aqueous solution of crystal violet (100 μL) and allowed to stand at ambient temperature for 30 minutes. Following another thorough washing with water the remaining stain was solubilized with 200 μL of 95% ethanol. Biofilm inhibition was quantitated by measuring the OD540 for each well by transferring 125 μL of the ethanol solution into a fresh polystyrene microtiter dish for analysis.
(§3) To examine each compound's ability to inhibit the formation of Pseudomonas aeruginosa biofilms, PAO1 and PA14 were employed as the target bacterial strains using a crystal violet reporter assay. G. A. O'Toole, R. Kolter, Mol. Microbiol. 1998, 28, 449. All compounds were initially screened at 500 μM for anti-biofilm activity.
An overnight culture of the wild type strain was subcultured at an OD600 of 0.10 into LBNS along with a predetermined concentration of the small molecule to be tested for biofilm inhibition. Samples were then aliquoted (100 μL) into the wells of a 96-well PVC microtiter plate. The microtiter dishes were covered and sealed before incubation under stationary conditions at 37° C. for 24 hours, After that time, the medium was discarded and the plates thoroughly washed with water. […]

[2] = test system: P. aeruginosa PA14; assay: Static biofilm inhibition assay (crystal violet), PA14; conditions: for IC50 / inhibition at 500 µM: Pseudomonas aeruginosa; for IC50: PA14, inhibition of biofilm formation, crystal violet, 24 hours; for inhibition at 500 µM: PA14, 24 h
Description: as §1, §2, §3
as §2, with “for 24 hours, After that” for “for 24 hours. After that”, “violet (100 pt) and allowed” for “violet (100 μL) and allowed”

[3] = test system: planktonic P. aeruginosa PAO1; assay: Planktonic growth (growth curves, colony counts), PAO1; conditions: growth curves and/or colony counts, presence vs absence of compound, at IC50 or as stated
Text: To answer the question of whether the compounds were antibiotics or true inhibitors of biofilm formation, we tested the ability of both compounds to inhibit growth of planktonic P. aeruginosa. Growth was quantitated by measuring optical density at 600 nm. […]

[4] = test system: planktonic P. aeruginosa PA14; assay: Planktonic growth (growth curves, colony counts), PA14; conditions: growth curves and/or colony counts, presence vs absence of compound, at IC50 or as stated

Structure (SMILES) | inhibition at 500 µM [1] | inhibition at 500 µM [2] | also measured
CCCCCCNC(=O)CCCc1c[nH]c(N)n1 [Compound 9, 4-(2-amino-1H-imidazol-4-yl)-N-hexyl-butyramide hydrochloride] |  |  | IC50 [1]: 32.7 ± 6.5 µM; IC50 [2]: 39.9 ± 13 µM
CCCCCCCCNC(=O)CCCc1c[nH]c(N)n1 [Compound 10, 4-(2-amino-1H-imidazol-4-yl)-N-octyl-butyramide hydrochloride] |  |  | IC50 [1]: 18.4 ± 2.3 µM; IC50 [2]: 13.3 ± 1.8 µM
Cl.Nc1nc(CCCNC(=O)c2ccc[nH]2)c[nH]1 [Compound 17, 1H-pyrrole-2-carboxylic acid [3-(2-amino-1H-imidazol-4-yl)-propyl]-amide hydrochloride] | < 10% | 16% | % Biofilm Inhibition at 500 μM vs PAO1 ([1]; 500 μM, hydrochloride): <10%
Nc1nc(CCCNC(=O)c2cc(Br)c[nH]2)c[nH]1 [Compound 18, 4-bromo-1H-pyrrole-2-carboxylic acid [3-(2-amino-1H-imidazol-4-yl)-propyl]-amide hydrochloride] | 74% | 86% | IC50 [1]: 323 ± 30 µM; IC50 [2]: 266 ± 23 µM
Nc1nc(CCCNC(=O)c2cc(Br)c(Br)[nH]2)c[nH]1 [Compound 19, 4,5-dibromo-1H-pyrrole-2-carboxylic acid [3-(2-amino-1H-imidazol-4-yl)-propyl]-amide hydrochloride] | < 70% | < 70% | 
Nc1nc(CCCNC(=O)c2cc(Cl)c(Cl)[nH]2)c[nH]1 [Compound 20, 4,5-dichloro-1H-pyrrole-2-carboxylic acid [3-(2-amino-1H-imidazol-4-yl)-propyl]-amide hydrochloride] | 37% | 48% | 
Cl.Cn1cccc1C(=O)NCCCc1c[nH]c(N)n1 [Compound 21, 1-methyl-pyrrole-2-carboxylic acid [3-(2-amino-1H-imidazol-4-yl)-propyl]-amide hydrochloride] | 25% |  | inhibition of PA14 biofilm formation (in words) ([2]; screen at 500 μM): inactive
Cn1cc(Br)cc1C(=O)NCCCc1c[nH]c(N)n1 [Compound 22, 4-bromo-1-methyl-pyrrole-2-carboxylic acid [3-(2-amino-1H-imidazol-4-yl)-propyl]-amide hydrochloride] | 88% | 83% | IC50 [1]: 348 ± 13 µM; IC50 [2]: 309 ± 16 µM
Cl.Cn1c(C(=O)NCCc2c[nH]c(N)n2)cc(Br)c1Br [Compound 27, 4,5-dibromo-1-methyl-pyrrole-2-carboxylic acid [2-(2-amino-1H-imidazol-4-yl)-ethyl]-amide hydrochloride] | > 95% | > 95% | IC50 [1]: 165 ± 23 µM; IC50 [2]: 224 ± 22 µM; microbicidal effect on PAO1 planktonic growth (in words) [3]: no microbicidal activity; microbicidal effect on PA14 planktonic growth (in words) [4]: no microbicidal activity
Cn1c(C(=O)NCCC=C2NC(N)=NC2=O)cc(Br)c1Br [Compound 32, 4,5-dibromo-1-methyl-pyrrole-2-carboxylic acid [3-(2-amino-5-oxo-3,5-dihydro-imidazol-4-ylidene)-propyl]-amide hydrochloride, reference compound] | < 20% | < 20% | 
O=C(NCCc1c[nH]cn1)c1ccc[nH]1 [Compound 34, 1H-pyrrole-2-carboxylic acid [2-(1H-imidazol-4-yl)-ethyl]amide hydrochloride] | 42% | 31% | 
O=C(NCCc1c[nH]cn1)c1cc(Br)c[nH]1 [Compound 35, 4-bromo-1H-pyrrole-2-carboxylic acid [2-(1H-imidazol-4-yl)-ethyl]-amide hydrochloride] | 46% | 43% | 
O=C(NCCc1c[nH]cn1)c1cc(Br)c(Br)[nH]1 [Compound 36, 4,5-dibromo-1H-pyrrole-2-carboxylic acid [2-(1H-imidazol-4-yl)-ethyl]-amide hydrochloride] | 73% | 69% | 
O=C(NCCc1c[nH]cn1)c1cc(Cl)c(Cl)[nH]1 [Compound 37, 4,5-dichloro-1H-pyrrole-2-carboxylic acid [2-(1H-imidazol-4-yl)-ethyl]-amide hydrochloride] | 33% | 38% | 
Cn1cccc1C(=O)NCCc1c[nH]cn1 [Compound 38, 1-methyl-pyrrole-2-carboxylic acid [2-(1H-imidazol-4-yl)-ethyl]amide hydrochloride] | 29% | 34% | 
Cn1cc(Br)cc1C(=O)NCCc1c[nH]cn1 [Compound 39, 4-bromo-1-methyl-pyrrole-2-carboxylic acid [2-(1H-imidazol-4-yl)-ethyl]amide hydrochloride] | 37% | 21% | 
O=C(NCCCc1c[nH]c(=S)[nH]1)c1ccc[nH]1 [Compound 43, 1H-pyrrole-2-carboxylic acid [3-(2-thioxo-2,3-dihydro-1H-imidazol-4-yl)-propyl]-amide] | 39% | 33% | 
O=C(NCCCc1c[nH]c(=S)[nH]1)c1cc(Br)c[nH]1 [Compound 44, 4-bromo-1H-pyrrole-2-carboxylic acid [3-(2-thioxo-2,3-dihydro-1H-imidazol-4-yl)-propyl]-amide] | 28% | 14% | 
O=C(NCCCc1c[nH]c(=S)[nH]1)c1cc(Br)c(Br)[nH]1 [Compound 45, 4,5-dibromo-1H-pyrrole-2-carboxylic acid [3-(2-thioxo-2,3-dihydro-1H-imidazol-4-yl)-propyl]-amide] | 61% | 56% | 
O=C(NCCCc1c[nH]c(=S)[nH]1)c1cc(Cl)c(Cl)[nH]1 [Compound 46, 4,5-dichloro-1H-pyrrole-2-carboxylic acid [3-(2-thioxo-2,3-dihydro-1H-imidazol-4-yl)-propyl]-amide] | 41% | 38% | 
Cn1cccc1C(=O)NCCCc1c[nH]c(=S)[nH]1 [Compound 47, 1-methyl-pyrrole-2-carboxylic acid [3-(2-thioxo-2,3-dihydro-1H-imidazol-4-yl)-propyl]-amide] | 27% | 36% | 
Cn1cc(Br)cc1C(=O)NCCCc1c[nH]c(=S)[nH]1 [Compound 48, 4-bromo-1-methyl-pyrrole-2-carboxylic acid [3-(2-thioxo-2,3-dihydro-1H-imidazol-4-yl)-propyl]-amide] | 41% | 57% | 
Cn1c(C(=O)NCCCc2c[nH]c(=S)[nH]2)cc(Br)c1Br [Compound 49, 4,5-dibromo-1-methyl-pyrrole-2-carboxylic acid [3-(2-thioxo-2,3-dihydro-1H-imidazol-4-yl)-propyl]-amide] | 46% | 38% | 

Reference: patent publication US9084423B2, “Inhibition of bacterial biofilms with imidazole derivatives” (North Carolina State University, priority 2007, dated 2015)
